The conditions of the data set: Liquid; for mass density / viscosity: 298.15 K; for mass density: 101.33 kPa, Vibrating tube method.

Experimental findings from the NIST ThermoML archive (doi:10.1021/je900998f) are described below.

Numbers after ± are expanded uncertainties.

In general, mass density refers to mass per unit of volume. In general, viscosity refers to the internal friction of a fluid under shear. In general, vapor or sublimation pressure refers to the pressure of vapour in equilibrium with the condensed phase. For `CCO` [ethanol], the mass density was determined as 785.46 ± 0.12 kg/m3. Moreover, the viscosity (Capillary tube (Ostwald / Ubbelohde) method) came to 1.082 ± 0.073 mPa·s. Further, the “vapor or sublimation pressure” value (351.44 K, Ebulliometric method (Recirculating still)) is on record as 101.33 ± 0.1 kPa.
Take `CCOS(=O)(=O)[O-].CC[n+]1cccc(C)c1` [1-ethyl-3-methylpyridinium ethylsulfate]: the mass density stood at 1222.26 ± 0.42 kg/m3 and the viscosity stood at 161.4 ± 8.4 mPa·s.
